One assay concerns the target T1, human DP1 receptor (Homo sapiens, UniProt Q13258).
T1 construct: tissue Biological Specialty Corporation; host or cells: human platelets, membranes
T1 sequence (Q13258 1-359): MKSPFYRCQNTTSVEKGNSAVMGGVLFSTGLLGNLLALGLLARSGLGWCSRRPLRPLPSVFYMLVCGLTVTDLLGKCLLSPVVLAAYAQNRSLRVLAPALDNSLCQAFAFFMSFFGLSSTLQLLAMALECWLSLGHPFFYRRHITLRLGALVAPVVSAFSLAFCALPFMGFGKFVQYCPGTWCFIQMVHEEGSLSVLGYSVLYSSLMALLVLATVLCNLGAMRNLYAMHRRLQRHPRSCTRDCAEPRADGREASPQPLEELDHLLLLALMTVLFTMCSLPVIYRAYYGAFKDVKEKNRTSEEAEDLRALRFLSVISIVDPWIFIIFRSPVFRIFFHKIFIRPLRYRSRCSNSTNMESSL
As to the kind of experiment: DP1 radioligand binding assay using [3H]BWA868C. Particulars: hDP1 binding. The method in brief:
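Human platelet membranes (20 μg protein/well) incubated 60 min at room temperature with 2 nM [3H]BWA868C in 50 mM Hepes, 10 mM MnCl2, 1 mM EDTA, ±0.2% human serum albumin, pH 7.4. Bound label measured after filtration; nonspecific binding defined with 10 μM BW A868C. IC50 from titration curves.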

For another assay, the target named is T2, human DP2 receptor (Homo sapiens, UniProt Q9Y5Y4).
T2 construct: expressed in transfected cells
T2 sequence (Q9Y5Y4 1-395): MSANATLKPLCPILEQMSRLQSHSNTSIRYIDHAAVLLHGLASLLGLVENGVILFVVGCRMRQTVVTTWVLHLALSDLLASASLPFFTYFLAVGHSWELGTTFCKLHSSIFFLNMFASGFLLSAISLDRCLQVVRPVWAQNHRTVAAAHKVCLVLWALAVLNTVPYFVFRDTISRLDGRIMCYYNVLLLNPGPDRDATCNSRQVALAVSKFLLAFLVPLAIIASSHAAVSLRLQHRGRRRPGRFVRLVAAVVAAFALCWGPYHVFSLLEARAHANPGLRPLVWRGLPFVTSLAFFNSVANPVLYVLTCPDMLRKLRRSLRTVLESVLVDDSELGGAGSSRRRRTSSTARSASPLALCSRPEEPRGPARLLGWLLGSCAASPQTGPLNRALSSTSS
Put plainly: DP2/CRTH2 radioligand binding assay using [3H]PGD2. Conditions: hDP2 (CRTH2) binding assay. The method, boiled down: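 HEK293 membranes with stable recombinant human DP2, incubated with 1 nM [3H]PGD2 and compound 60 min at room temperature in pH 7.4 HEPES/MnCl2/EDTA buffer, with or without 0.2% human serum albumin.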

For assay [1], the target named is T3, recombinant human CRTH2 receptor (Homo sapiens, UniProt Q9Y5Y4).
T3 construct: expressed in transfected cells
T3 sequence (Q9Y5Y4 1-395): T2 sequence (Q9Y5Y4 1-395)
Put plainly: GTPγS binding assay. Format: biochemical. Particulars: +HSA; read-out: hDP2 GTPγS μM (+HSA). The method, boiled down:
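Membranes from CHO cells stably expressing recombinant receptor (~12.5 μg/well), incubated 60 min at 30° C with 0.05 nM [^35S]-GTPγS, 80 nM PGD2, 5 μM GDP in pH 7.4 Hepes buffer with 0.2% human serum albumin. Filter-bound radioactivity counted; specific binding = total minus binding without PGD2; IC50 from titration curves.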
A general note: GTPγS is a poorly hydrolysed GTP analogue; its binding reports G protein activation.

For `O=C(O)Cc1cccc(Oc2ccc(Br)cc2CN2C(=O)OC[C@@H]2c2ccccc2)c1` [Compound 1-45, {3-[4-Bromo-2-((S)-2-oxo-4-phenyl-oxazolidin-3-ylmethyl)-phenoxy]-phenyl}-acetic acid], the IC50 on human DP1 receptor is more than 1000 nM; on human DP2 receptor it was less than 300 nM; in assay [1], less than 0.3 µM.

On to `O=C(O)Cc1cccc(Oc2ccc(Br)cc2CN2C(=O)OC[C@@H]2Cc2ccccc2)c1` [Compound 1-46, {3-[2-((S)-4-Benzyl-2-oxo-oxazolidin-3-ylmethyl)-4-bromo-phenoxy]-phenyl}-acetic acid], for which the IC50 at human DP1 receptor was more than 1000 nM; on human DP2 receptor, less than 300 nM; in assay [1], less than 0.3 µM.

Consider `O=C(O)Cc1cccc(Oc2ccc(Br)cc2CN2C[C@@H](c3ccccc3)OC2=O)c1` [Compound 1-47, {3-[4-Bromo-2-((R)-2-oxo-5-phenyl-oxazolidin-3-ylmethyl)-phenoxy]-phenyl}-acetic acid], for which the IC50 on human DP1 receptor is 300 to 1000 nM; on human DP2 receptor, less than 300 nM; in assay [1] it was less than 0.3 µM.

On to `O=C(O)Cc1cccc(Oc2ccc(Br)cc2CN2C[C@H](c3ccccc3)OC2=O)c1` [Compound 1-48, {3-[4-Bromo-2-((S)-2-oxo-5-phenyl-oxazolidin-3-ylmethyl)-phenoxy]-phenyl}-acetic acid], for which the IC50 at human DP1 receptor was 300 to 1000 nM; at human DP2 receptor, less than 300 nM; in assay [1] it was more than 1 µM.

In the case of `C[C@@H]1[C@H](c2ccccc2)OC(=O)N1Cc1cc(Br)ccc1Oc1cccc(CC(=O)O)c1` [Compound 1-49, {3-[4-Bromo-2-((4R,5S)-4-methyl-2-oxo-5-phenyl-oxazolidin-3-ylmethyl)-phenoxy]-phenyl}-acetic acid], the IC50 on human DP1 receptor was less than 300 nM; at human DP2 receptor it was less than 300 nM; in assay [1], less than 0.3 µM.

Regarding `C[C@@H]1[C@H](c2ccc(Cl)cc2)OC(=O)N1Cc1cc(Br)ccc1Oc1cccc(CC(=O)O)c1` [Compound 1-50, (3-{4-Bromo-2-[(4R,5S)-5-(4-chloro-phenyl)-4-methyl-2-oxo-oxazolidin-3-ylmethyl]-phenoxy}-phenyl)-acetic acid], the values for the IC50 (at human DP1 receptor; at human DP2 receptor; in assay [1]) were 300 to 1000 nM, less than 300 nM and 0.3 to 1 µM, respectively.

`C[C@@H]1[C@H](c2cc(F)cc(F)c2)OC(=O)N1Cc1cc(Br)ccc1Oc1cccc(CC(=O)O)c1` [Compound 1-51]: the IC50 at human DP1 receptor is 300 to 1000 nM; on human DP2 receptor it was less than 300 nM; in assay [1] it was less than 0.3 µM.

`C[C@@H]1[C@H](c2cc(C(F)(F)F)cc(C(F)(F)F)c2)OC(=O)N1Cc1cc(Br)ccc1Oc1cccc(CC(=O)O)c1` [Compound 1-52]: the IC50 on human DP1 receptor was more than 1000 nM; on human DP2 receptor, less than 300 nM; in assay [1], more than 1 µM.

Consider `C[C@@H]1[C@H](c2ccccc2)OC(=O)N1Cc1cc(Br)ccc1Oc1ccc(Cl)c(CC(=O)O)c1` [Compound 1-53, {5-[4-Bromo-2-((4R,5S)-4-methyl-2-oxo-5-phenyl-oxazolidin-3-ylmethyl)-phenoxy]-2-chloro-phenyl}-acetic acid], for which the IC50 is more than 1000 nM at human DP1 receptor, less than 300 nM at human DP2 receptor and more than 1 µM in assay [1].

Consider `C[C@@H]1[C@H](c2ccccc2)OC(=O)N1Cc1cc(Br)ccc1Oc1ccc(C(F)(F)F)c(CC(=O)O)c1` [Compound 1-54, {5-[4-Bromo-2-((4R,5S)-4-methyl-2-oxo-5-phenyl-oxazolidin-3-ylmethyl)-phenoxy]-2-trifluoromethyl-phenyl}-acetic acid], for which the IC50 is more than 1000 nM on human DP1 receptor, 300 to 1000 nM on human DP2 receptor and more than 1 µM in assay [1].

In the case of `C[C@@H]1[C@H](c2ccccc2)OC(=O)N1Cc1cc(Br)ccc1Oc1cc(F)cc(CC(=O)O)c1` [Compound 1-55, {3-[4-Bromo-2-((4R,5S)-4-methyl-2-oxo-5-phenyl-oxazolidin-3-ylmethyl)-phenoxy]-5-fluoro-phenyl}-acetic acid], the results for the IC50 (at human DP1 receptor; on human DP2 receptor; in assay [1]) were more than 1000 nM, less than 300 nM and less than 0.3 µM, respectively.
